The source of these data is US20040219105A1, “Human hookworm model and method for maintaining human hookworm in a non-human primate” (priority 2003, published 2004).

The test system of the test is whole blood basophils. The experiment in a line: Whole blood basophil histamine release (Histamine Assay Kit). The test is classed as cell-based, marmoset (Callithrix jacchus). The note with it: whole blood of hookworm-infected animals; 5 out of 6 animals. The procedure: Furthermore, whole blood basophils collected from the animals were challenged for their ability to release histamine. One hundred (100) μl of whole blood was collected from the primates into heparinized tubes and the volume was made up to 500 μl using PIPES buffer (0.01 M Piperazine-N′N-bis[2-ethaneculfonic acid], 0.14 M sodium acetate, 5 mM potassium acetate, 0.1% glucose, 1 mM CaCl2 and 0.03% human serum albumin, pH 7.4). Spontaneous histamine release was assessed following incubation for 1 h at 37° C., while total histamine release was assessed when 50 μl of whole blood in 450 μl dH2O was freeze-thawed three times. […] Histamine released in each whole blood challenge was detected using a Histamine Assay Kit (Hycor Biomedical Ltd.). […] Antibody binding was visualised by the addition of 100 μl of 1 mg/ml of p-nitrophenyl phosphate (pNPP) substrate The plates were developed for 1 h at 37° C. and the absorbance measured at 405 nm using a Dynex MRX absorbance microplate reader (DYNEX Technologies, Chantilly, Va.). For all samples and calibrators the percentage binding was determined by the following: [formula]
A standard curve was constructed by plotting the Percentage Binding against concentration for each histamine calibrator, and the levels of histamine in each challenge were determined from this curve.

With calreticulin, the basophil histamine release result is listed as “significant histamine release”.
